From US7994204B2, “Binding inhibitor of sphingosine-1-phosphate” (Taisho Pharmaceutical Co., Ltd, priority 2006, dated 2011) come the findings set out here.

In data set [1] the target is T1, human Edg-1 (S1P1) (Homo sapiens, UniProt P21453).
T1 construct: expressed in transfected cells; host or cells: HEK-293
In words: S1P1 binding inhibition test (membrane, [33P]-S1P). The following applies: for inhibition at 10 µM: compound 10 μM, [33P]-S1P 0.1 nM, human Edg-1 (S1P1) HEK-293 membrane fraction, read-out: Binding test (membrane) % inhibition (10 μM); for IC50: membrane system binding test, various concentrations. In short, it runs like this: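 Membranes from Edg-1 (S1P1)-expressing HEK-293 cells incubated 1 h at 30 °C in pH 7.4 Tris buffer with 0.1 nM [33P]-S1P and compound (10^−5 M, or various concentrations for IC50). Filter-bound radioactivity counted; background from non-transfected HEK-293 membranes; inhibition = [1−(A−C)/(B−C)]×100.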

The structures appear in SMILES notation.

T1 sequence (P21453 whole entry): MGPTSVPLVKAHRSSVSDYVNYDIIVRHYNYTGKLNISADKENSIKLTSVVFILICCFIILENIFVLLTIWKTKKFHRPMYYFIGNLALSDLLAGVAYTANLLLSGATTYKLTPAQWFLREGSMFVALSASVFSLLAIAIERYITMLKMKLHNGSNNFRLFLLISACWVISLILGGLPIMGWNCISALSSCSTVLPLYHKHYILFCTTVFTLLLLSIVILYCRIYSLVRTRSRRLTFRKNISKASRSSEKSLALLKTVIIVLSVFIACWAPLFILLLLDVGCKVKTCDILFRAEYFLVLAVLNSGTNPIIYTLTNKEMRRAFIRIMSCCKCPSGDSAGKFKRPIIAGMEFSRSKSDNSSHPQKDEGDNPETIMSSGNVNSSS

As usually defined, the inhibition is the relative decrease from the control value, in per cent. For orientation: IC50 means the concentration that inhibits the measured activity by half. For orientation: melting point means the temperature, or range, at which the solid turns liquid. Compound `CCn1c(C(C)NS(=O)(=O)c2ccc(Cl)c(Cl)c2)cnc1Oc1cccc(N2CCCCC2)c1` (centres unmarked) [Compound 208] gave a melting point of 169.5 to 170.5 °C. Besides, in data set [1], the inhibition at 10 µM came out at 99.6% and the IC50 was no more than 15 nM.

`CCn1c(C(C)NS(=O)(=O)c2ccc(Cl)c(Cl)c2)cnc1Oc1cccc(-n2ccnc2)c1` (centres unmarked) [Compound 209] yielded a melting point of 170 to 171 °C. Besides, in data set [1], the inhibition at 10 µM turned out to be 98.9% and the IC50 was determined as 42 nM.

For the compound `CCn1c(CNS(=O)(=O)c2ccc(Cl)c(Cl)c2)cnc1Oc1ccc(F)cc1` [Compound 210], the melting point lay in the range of 154 to 155 °C. Further, the inhibition at 10 µM in data set [1] was found to be 90.6%.

As for `CC(NS(=O)(=O)c1ccc(Cl)c(Cl)c1)c1cnc(Oc2ccc(F)cc2)n1C` (centres unmarked) [Compound 211], the melting point fell in the range of 179.5 to 180.5 °C. Besides, the inhibition at 10 µM in data set [1] worked out at 92.2%.

As for `CC(NS(=O)(=O)c1ccc2c(Cl)cccc2c1)c1cnc(Oc2ccc(F)cc2)n1C` (centres unmarked) [Compound 212], the melting point lay in the range of 134 to 135 °C. Further, the inhibition at 10 µM in data set [1] is 92%.

In turn, `CCn1c(C(C)NS(=O)(=O)c2ccc(Cl)c(Cl)c2)cnc1Oc1ccc2ccncc2c1` (centres unmarked) [Compound 213] showed a melting point of 185.5 to 187.5 °C. Besides, in data set [1], the inhibition at 10 µM is 99.6% and the IC50 is 49 nM.

For `CCn1c(C(C)NS(=O)(=O)c2ccc(Cl)c(Cl)c2)cnc1Oc1ccc(OCCN2CCOCC2)cc1` (centres unmarked) [Compound 214], the melting point was 167 to 168 °C. In data set [1], the inhibition at 10 µM amounted to 102% and the IC50 was no more than 70 nM.

`CCn1c(C(C)NS(=O)(=O)c2ccc(Cl)c(Cl)c2)cnc1Oc1cc(C)nc(C)c1` (centres unmarked) [Compound 215] registered a melting point of 179 to 180 °C. For the same compound, the inhibition at 10 µM in data set [1] came out at 100%.

As to `CCn1c(C(C)NS(=O)(=O)c2ccc(Cl)c(Cl)c2)cnc1OC1CCCCC1` (centres unmarked) [Compound 216], the melting point lay within 180 to 181 °C. In data set [1], the inhibition at 10 µM came to 92%.

Take `CCn1c(C(C)NS(=O)(=O)c2ccc(Cl)c(Cl)c2)cnc1Oc1cc(C(F)(F)F)n(C)n1` (centres unmarked) [Compound 217]: the melting point lay within 146 to 148 °C. Also, in data set [1], the inhibition at 10 µM is 96.3%.

`CCn1c(C(C)NS(=O)(=O)c2ccc(Cl)c(Cl)c2)cnc1Oc1ccc(C)c(C)c1` (centres unmarked) [Compound 218] came in with a melting point of 102.5 to 107.5 °C. Moreover, the inhibition at 10 µM in data set [1] was 101%.

Compound `CCOc1ncc(C(C)NS(=O)(=O)c2ccc(Cl)c(Cl)c2)n1CC` (centres unmarked) [Compound 219] came in with a melting point of 195 to 196 °C. The inhibition at 10 µM in data set [1] was found to be 83.2%.

For the compound `CCCCCCC(NS(=O)(=O)c1ccc(Cl)c(Cl)c1)c1cnc(Oc2ccc(F)cc2)n1CC` (centres unmarked) [Compound 220], the melting point lay within 79 to 80 °C. Also, the inhibition at 10 µM in data set [1] was determined as 68.3%.

In turn, `CCn1c(C(NS(=O)(=O)c2ccc(Cl)c(Cl)c2)C(C)C)cnc1Oc1ccc(F)cc1` (centres unmarked) [Compound 221] registered a melting point of 101 to 102 °C. In addition, the inhibition at 10 µM in data set [1] amounted to 52.6%.

Consider `CCn1c(C(C)NS(=O)(=O)c2ccc(Cl)c(Cl)c2)cnc1OC(C)C` (centres unmarked) [Compound 222], for which the melting point was 178 to 180 °C. The inhibition at 10 µM in data set [1] stood at 87.6%.

The compound `CCCOc1ncc(C(C)NS(=O)(=O)c2ccc(Cl)c(Cl)c2)n1CC` (centres unmarked) [Compound 223] showed a melting point of 181 to 183 °C. The inhibition at 10 µM in data set [1] worked out at 92.1%.

`CCn1c(C(C)NS(=O)(=O)c2ccc(Cl)c(Cl)c2)cnc1OCC(F)(F)F` (centres unmarked) [Compound 224] had a melting point of 133.5 to 134.5 °C. Moreover, the inhibition at 10 µM in data set [1] was 87%.

Turning to `CCc1nc(Oc2ccc(F)cc2)n(CC)c1C(C)NS(=O)(=O)c1ccc(Cl)c(Cl)c1` (centres unmarked) [Compound 225], the melting point fell in the range of 122 to 124 °C. For the same compound, the inhibition at 10 µM in data set [1] amounted to 98.9%.

As to `C#CCCCOc1ncc(C(C)NS(=O)(=O)c2ccc(Cl)c(Cl)c2)n1CC` (centres unmarked) [Compound 226], the melting point is 172.5 to 173.5 °C. Further, in data set [1], the inhibition at 10 µM is 91.5%.

`CCn1c(C(C)NS(=O)(=O)c2ccc(Cl)c(Cl)c2)cnc1OCCCN1CCOCC1` (centres unmarked) [Compound 228]: the melting point lay in the range of 160.5 to 162.5 °C. Besides, the inhibition at 10 µM in data set [1] is 96%.

For the compound `CCn1c(C(C)NS(=O)(=O)c2ccc(Cl)c(Cl)c2)cnc1Oc1ccc(OCCN(C)C)cc1` (centres unmarked) [Compound 229], the melting point was in the range of 106 to 107 °C. In addition, in data set [1], the inhibition at 10 µM is 99% and the IC50 is no more than 70 nM.

For the compound `CCn1c(C(C)NS(=O)(=O)c2ccc(Cl)c(Cl)c2)cnc1OCc1ccccc1` (centres unmarked) [Compound 230], the melting point was 102 to 103 °C. In addition, in data set [1], the inhibition at 10 µM came to 90.7%.

In turn, `CCn1c(C(C)NS(=O)(=O)c2ccc(Cl)c(Cl)c2)cnc1OC1CCC1` (centres unmarked) [Compound 231] yielded a melting point of 162 to 163 °C. In addition, the inhibition at 10 µM in data set [1] was found to be 97.4%.

`CCn1c(Oc2ccc(F)cc2)nc(Br)c1C(C)NS(=O)(=O)c1ccc(Cl)c(Cl)c1` (centres unmarked) [Compound 232] registered a melting point of 128.5 to 129.5 °C. Moreover, the inhibition at 10 µM in data set [1] was found to be 92.3%.

Compound `CCn1c(C(C)NS(=O)(=O)c2ccc(Cl)c(Cl)c2)cnc1OCCCCCCN(C)C` (centres unmarked) [Compound 235] gave a melting point of 137.5 to 142.5 °C. For the same compound, in data set [1], the inhibition at 10 µM was determined as 94% and the IC50 stood at 58.5 nM.

As for `CCn1c(C(C)NS(=O)(=O)c2ccc(Cl)c(Cl)c2)cnc1Oc1cccc(NC(C)=O)c1` (centres unmarked) [Compound 236], the melting point fell in the range of 213.5 to 215.5 °C. Moreover, in data set [1], the inhibition at 10 µM was found to be 96.8% and the concentration for half-maximal inhibition (IC50) is no more than 70 nM.

`C=CCCCOc1ncc(C(C)NS(=O)(=O)c2ccc(Cl)c(Cl)c2)n1CC` (centres unmarked) [Compound 237] showed a melting point of 152.5 °C. The inhibition at 10 µM in data set [1] is 93.1%.

Compound `CCn1c(C(C)NS(=O)(=O)c2ccc(Cl)c(Cl)c2)cnc1OCCCOC` (centres unmarked) [Compound 239] came in with a melting point of 151.5 to 152.5 °C. Besides, the inhibition at 10 µM in data set [1] was 95.9%.

For the compound `CCn1c(C(C)NS(=O)(=O)c2ccc3cc(C)ccc3c2)cnc1Oc1cccc(N2CCN(C)CC2)c1` (centres unmarked) [Compound 242], the melting point lay in the range of 175 to 177 °C. Further, in data set [1], the inhibition at 10 µM worked out at 94.5%.

Compound `CCn1c(C(C)NS(=O)(=O)c2ccc3ccc(Cl)cc3c2)cnc1Oc1cccc(N2CCN(C)CC2)c1` (centres unmarked) [Compound 243] registered a melting point of 135 to 136 °C. The inhibition at 10 µM in data set [1] was found to be 97.4%.

`CCn1c(C(C)NS(=O)(=O)c2ccc3c(c2)CCC3)cnc1Oc1cccc(N2CCN(C)CC2)c1` (centres unmarked) [Compound 244] had a melting point of 160 to 162 °C. Further, in data set [1], the inhibition at 10 µM came to 98.3% and the IC50 was 32.5 nM.

In the case of `CCn1c(C(C)NS(=O)(=O)/C=C/c2ccccc2)cnc1Oc1cccc(N2CCN(C)CC2)c1` (centres unmarked) [Compound 245], the melting point was in the range of 141 to 143 °C. Moreover, the inhibition at 10 µM in data set [1] is 98.9%.

The compound `CCn1c(C(C)NS(=O)(=O)c2ccc3c(Cl)ccc(Cl)c3c2)cnc1Oc1cccc(N2CCN(C)CC2)c1` (centres unmarked) [Compound 246] gave a melting point of 220 to 223 °C. In data set [1], the inhibition at 10 µM amounted to 101% and the IC50 is no more than 15 nM.

On to `CCn1c(C(C)NS(=O)(=O)c2ccc3cccc(Cl)c3c2)cnc1Oc1cccc(N2CCN(C)CC2)c1` (centres unmarked) [Compound 247], for which the melting point lay in the range of 196 to 198 °C. Further, in data set [1], the inhibition at 10 µM was found to be 99.9% and the IC50 is no more than 15 nM.

For `CCn1c(C(C)NS(=O)(=O)c2ccc(Cl)c(Cl)c2)cnc1S(=O)(=O)c1ccc(C)cc1` (centres unmarked) [Compound 252, 3,4-Dichloro-N-{1-[3-ethyl-2-(toluene-4-sulfonyl)-3H-imidazol-4-yl]-ethyl}-benzenesulfonamide], the melting point fell in the range of 180 to 183 °C. The inhibition at 10 µM in data set [1] amounted to 52.5%.
